In patent publication US11672841B2, “Methods for treating heart disease in a subject with Friedreich's ataxia by an aromatic-cationic peptide” (Stealth BioTherapeutics Inc., priority 2013, dated 2023):
Non-standard residues stand in square brackets, D forms with d. Residues, ends and D or L forms follow the SMILES beside them. No end group written: not given here. Dmt = Cc1cc(O)cc(C)c1C[C@H](N)C(=O)O

What was measured:
[1] = system: several mammalian cell types; details: energy-independent manner (Zhao, et al., 2003); cited from earlier work
[2] = system: fibroblasts from Friedreich's ataxia (FRDA) patients; details: 1-10 μM peptide 24 hours, then 5 μm Fe/HQ for 5 hours
Protocol: Iron with hydroquinone (HQ) induces oxidative stress in cells because HQ forms a lipophilic chelate with iron and rapidly transfers the metal across the normally impermeable plasma membrane.
After 24 hours, the media is changed and the cells are treated with 5 μm Fe/HQ for 5 hours.

[3] = biological target: mu-opioid receptor (Homo sapiens, UniProt P35372); assay: Mu-opioid receptor agonist activity; details: stated without a test
Chain of mu-opioid receptor (P35372 whole entry, species assumed): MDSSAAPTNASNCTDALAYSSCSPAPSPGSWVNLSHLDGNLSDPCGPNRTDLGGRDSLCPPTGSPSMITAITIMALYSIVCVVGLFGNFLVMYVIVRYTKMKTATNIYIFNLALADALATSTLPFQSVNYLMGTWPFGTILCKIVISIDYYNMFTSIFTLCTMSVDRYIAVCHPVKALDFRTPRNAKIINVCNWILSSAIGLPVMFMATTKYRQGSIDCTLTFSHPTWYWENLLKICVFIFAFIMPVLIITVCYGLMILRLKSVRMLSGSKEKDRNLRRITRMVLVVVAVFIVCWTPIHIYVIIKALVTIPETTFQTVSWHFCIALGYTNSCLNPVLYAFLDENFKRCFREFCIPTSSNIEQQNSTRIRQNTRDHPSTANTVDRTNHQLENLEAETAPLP

| Compound | mu-opioid receptor agonist activity [3] | further results |
| --- | --- | --- |
| 2′,6′-Dmt-D-Arg-Phe-Lys-NH2 |  | penetration of the plasma membrane [1]: readily penetrates the plasma membrane |
| Cc1cc(O)cc(C)c1C[C@H](NC(=O)[C@H](N)CCCNC(=N)N)C(=O)N[C@@H](CCCCN)C(=O)N[C@@H](Cc1ccccc1)C(N)=O [D-Arg-2′,6′-Dmt-Lys-Phe-NH2] (H-[dR][Dmt]KF-NH2) |  | survival and cytotoxicity by morphologic appearance [2]: reduced evidence of cytotoxicity |
| F[dR]FK-NH2 | does not have mu-opioid receptor agonist activity |  |
| Tyr-D-Arg-Phe-Lys-NH2 | has mu-opioid receptor agonist activity |  |
